No end group written: not given here.
Assays:
[1] = system: Rat bone marrow-derived stem cells (mesenchymal stem cells); assay: Evaluation of cell growth-promoting activity, WST-8 colorimetric method (Example 5); format: cell-based; conditions: WST-8 absorbance at 450 nm, peptide approximately 2 μM, bFGF 10 ng/mL; for OD450 at the start of cultivation: day 0; for OD450 after 4 days: day 4
Description: Experimental sections were set up that used the cell growth-promoting peptides obtained in Example 4 (samples 22 to 42) as a cell growth promoter and that used a commercially available bFGF as a cell growth promoter as a comparative example. For the control, a peptide-free section (the bFGF was also not added) was set up.
(§1) The details of the evaluation testing are provided below. Each synthesized sample peptide was dissolved in PBS (phosphate-buffered physiological saline) to prepare a stock solution with a peptide concentration of 1 mM.
(§2) Rat bone marrow-derived stem cells (mesenchymal stem cells) were used as the test cells. Specifically, the test stem cells were cultured by passage on Dulbecco's MEM medium (DMEM medium: Gibco product) containing 10% fetal bovine serum (FBS: Gibco product), 2 mM of L-glutamine, 50 unit/mL of penicillin, and 50 μg/mL of streptomycin. From the second passage to the fourth passage (passages 2 to 4) were used in this evaluation testing.
(§3) Thus, the test stem cells were preliminarily recovered by treatment with a 0.05% trypsin-0.53 mM EDTA solution; a test stem cell solution, prepared with the DMEM medium containing 10 ng/mL of bFGF to provide 1×10^4 cells/mL, was seeded to each well of a 96-well plate to provide a cell count of 1×10^3 per well; and pre-cultivation was carried out overnight. The amount of medium was brought to 100 μL per well for this.
The medium in each well was then exchanged for fresh medium to which a stock solution of a peptide selected from sample 22 to 42 had been added, so as to give a concentration of the peptide in each well of approximately 2 μM. For comparison, in some wells the medium in the well was exchanged for fresh medium to which a commercially available bFGF (product of PeproTech) had been added to give a concentration of 10 ng/mL (the bFGF experimental section in Table 6).
(§4) After the addition of the sample peptide or bFGF as indicated above, the 96-well plate was placed in a CO2 incubator and cultivation at quiescence was carried out at 37° C. under 5% CO2. Medium exchange was performed every other day. The exchange medium was the same as that used at the start of cultivation (i.e., the same sample peptide or bFGF was also added to the exchange medium as in the sample peptide addition section or bFGF addition section).
During this cultivation test, a “water-soluble tetrazolium salt (WST-8)” was added as a chromogenic reagent to some wells at the start of cultivation (day 0) and at four days after the start of cultivation (day 4). After incubation for 2 hours after the addition, the cell culture fluid to which the chromogenic reagent had been added was recovered. The extent of cell growth was evaluated by a colorimetric method in which, based on reduction of the tetrazolium salt, the absorbance (OD450) at a wavelength of 450 nm was measured.

[2] = system: Rat bone marrow-derived stem cells (mesenchymal stem cells); assay: Evaluation of cell growth-promoting activity, WST-8 colorimetric method (Example 2); format: cell-based; conditions: WST-8 absorbance at 450 nm, peptide approximately 2 μM, bFGF 10 ng/mL
Description: Experimental sections were set up that used the cell growth-promoting peptides obtained in Example 1 (samples 1 to 21) as a cell growth promoter and that used a commercially available bFGF as a cell growth promoter as a comparative example. For the control, a peptide-free section (the bFGF was also not added) was set up.
as §1, §2, §3
The medium in each well was then exchanged for fresh medium to which a stock solution of a peptide selected from sample 1 to 21 had been added, so as to give a concentration of the peptide in each well of approximately 2 μM. For comparison, in some wells the medium in the well was exchanged for fresh medium to which a commercially available bFGF (product of PeproTech) had been added to give a concentration of 10 ng/mL (the bFGF experimental section in Table 3).
as §4
During this cultivation test, a “water-soluble tetrazolium salt (WST-8)” was added as a chromogenic reagent to some wells at the start of cultivation (day 0), at two days after the start of cultivation (day 2), and at four days after the start of cultivation (day 4). After incubation for 2 hours after the addition, the cell culture fluid to which the chromogenic reagent had been added was recovered. The extent of cell growth was evaluated by a colorimetric method in which, based on reduction of the tetrazolium salt, the absorbance (OD450) at a wavelength of 450 nm was measured.

| Substance | OD450 at the start of cultivation [1] | OD450 after 4 days [1] | OD450 at the start of cultivation ([2]; day 0) | OD450 after 2 days ([2]; day 2) | OD450 after 4 days ([2]; day 4) |
| --- | --- | --- | --- | --- | --- |
| MLPGLALLGKKRTLRKNDRKKR (MLPGLALLGKKRTLRKNDRKKR-NH2) [compound 41] | 0.051 | 0.311 |  |  |  |
| MLPGLALLLGKKRTLRKNDRKKR (MLPGLALLLGKKRTLRKNDRKKR-NH2) [compound 40] | 0.051 | 0.487 |  |  |  |
| MLPGLALLLLAAGKKRTLRKNDRKKR (MLPGLALLLLAAGKKRTLRKNDRKKR-NH2) [sample 37] | 0.051 | 0.571 |  |  |  |
| MLPGLALLLLAAWGKKRTLRKNDRKKR (MLPGLALLLLAAWGKKRTLRKNDRKKR-NH2) [compound 36] | 0.051 | 0.288 |  |  |  |
| MLPGLALLLLAAWTAGKKRTLRKNDRKKR (MLPGLALLLLAAWTAGKKRTLRKNDRKKR-NH2) [compound 34] | 0.051 | 0.243 |  |  |  |
| MLPGLALLLLAAWTARAGKKRTLRKNDRKKR (MLPGLALLLLAAWTARAGKKRTLRKNDRKKR-NH2) [sample 22] | 0.051 | 0.241 |  |  |  |
| MLPGLALLLLAAWTGKKRTLRKNDRKKR (MLPGLALLLLAAWTGKKRTLRKNDRKKR-NH2) [compound 35] | 0.051 | 0.299 |  |  |  |
| MLPGLALLLLAGKKRTLRKNDRKKR (MLPGLALLLLAGKKRTLRKNDRKKR-NH2) [compound 38] | 0.051 | 0.491 |  |  |  |
| MLPGLALLLLGKKRTLRKNDRKKR (MLPGLALLLLGKKRTLRKNDRKKR-NH2) [sample 39] | 0.051 | 0.538 |  |  |  |
| PGLALLLLAAWTARAGKKRTLRKNDRKKR (PGLALLLLAAWTARAGKKRTLRKNDRKKR-NH2) [compound 23] | 0.051 | 0.391 |  |  |  |
| WTARAGKKRTLRKNDRKKR (WTARAGKKRTLRKNDRKKR-NH2) [compound 33] | 0.051 | 0.407 |  |  |  |
| basic fibroblast growth factor [bFGF, reference compound] | 0.051 | 0.499 | 0.058 | 0.196 | 0.484 |

From patent publication US9238796B2, “Cell growth-promoting peptide and use thereof” (TOAGOSEI CO., LTD., priority 2010, dated 2016)
